One test concerns the target Endothelial lipase (EL) (Homo sapiens (Human), UniProt Q9Y5X9). In words: EL assay: endothelial lipase activity with fluorescent substrate A10070 in DMPG vesicles. Format: biochemical. A digest of the protocol:
(§1)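 Compounds were preincubated with enzyme for 30 min at 37° C before FRET-substrate vesicles (A10070 in DMPG, 0.11 mole fraction) were added. Reaction rates were obtained from the 300–900 sec slope of fluorescence at 490/530 nm.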

The target of a further test is hepatic lipase (HL) (Homo sapiens (Human), UniProt P11150). Nature of the test: HL assay: hepatic lipase activity with fluorescent substrate A10070 in DMPG vesicles. The format is biochemical. A digest of the protocol: as §1
The mark [1] stands for this setting: EL from conditioned media of HT-1080 cells, 30 min incubation with compound at 37° C., A10070/DMPG vesicles.
Setting [2] is: HL partially purified from conditioned media of COS cells, 30 min incubation with compound at 37° C., A10070/DMPG vesicles.

Like-named read-outs stand apart in the source and are kept apart here.

This note sets out measurements from patent publication US8987314B2, “Amide, urea or sulfone amide linked benzothiazole inhibitors of endothelial lipase” (Bristol-Myers Squibb Company, priority 2012, dated 2015).

Chain of Endothelial lipase (EL) (Q9Y5X9 21-500): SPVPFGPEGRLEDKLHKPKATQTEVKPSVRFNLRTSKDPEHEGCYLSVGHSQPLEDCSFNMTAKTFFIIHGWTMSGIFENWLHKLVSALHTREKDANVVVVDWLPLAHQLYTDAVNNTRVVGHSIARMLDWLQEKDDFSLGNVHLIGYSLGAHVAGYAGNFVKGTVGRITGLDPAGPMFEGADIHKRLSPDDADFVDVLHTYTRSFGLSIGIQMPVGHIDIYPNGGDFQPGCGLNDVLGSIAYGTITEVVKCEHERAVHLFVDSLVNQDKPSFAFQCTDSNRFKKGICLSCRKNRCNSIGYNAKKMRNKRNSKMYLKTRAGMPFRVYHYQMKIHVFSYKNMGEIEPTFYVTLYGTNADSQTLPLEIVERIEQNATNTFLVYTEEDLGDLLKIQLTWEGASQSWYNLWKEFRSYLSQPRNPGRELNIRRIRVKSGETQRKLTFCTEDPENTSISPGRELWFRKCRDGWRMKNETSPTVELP
Chain of hepatic lipase (HL) (P11150 23-499, species assumed): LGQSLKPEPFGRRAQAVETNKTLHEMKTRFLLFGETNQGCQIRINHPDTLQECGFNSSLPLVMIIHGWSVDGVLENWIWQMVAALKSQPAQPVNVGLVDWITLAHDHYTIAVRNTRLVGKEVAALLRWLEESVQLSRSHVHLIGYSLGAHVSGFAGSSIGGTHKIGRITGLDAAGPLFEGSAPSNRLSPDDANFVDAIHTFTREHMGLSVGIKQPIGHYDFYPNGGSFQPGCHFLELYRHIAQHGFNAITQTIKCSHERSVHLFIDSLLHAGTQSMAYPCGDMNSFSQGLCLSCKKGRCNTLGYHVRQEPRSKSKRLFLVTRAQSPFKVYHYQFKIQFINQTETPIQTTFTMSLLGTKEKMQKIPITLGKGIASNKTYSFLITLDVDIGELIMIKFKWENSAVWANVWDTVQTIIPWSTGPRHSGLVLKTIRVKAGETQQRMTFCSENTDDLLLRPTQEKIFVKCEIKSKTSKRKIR

What is called IC50 is the concentration that gives 50% inhibition. As to `COCCNC(=O)c1ccc(-c2ccc3nc(C(C(=O)NCCS(N)(=O)=O)S(=O)(=O)Cc4cc(Cl)cc(Cl)c4)sc3c2)cc1` (stereo not drawn) [Example B295, 4-{2-[(3,5-dichlorophen-yl)methanesulfonyl[(2-sulfa-moylethyl)carbamoyl]meth-yl]-1,3-benzothiazol-6-yl}-N-(2-methoxyethyl)ben-zamide], the IC50 at Endothelial lipase (EL) was 20.9 nM; against hepatic lipase (HL), 140 nM.
On to `COCc1ccc(-c2ccc3nc(C(C(=O)NCCS(N)(=O)=O)S(=O)(=O)Cc4ccc(OC(F)(F)F)cc4)sc3c2)cc1` (stereo not drawn) [Example B285, 2-{6-[4-(methoxymethyl)phenyl]-1,3-benzothiazol-2-yl}-N-(2-sulfamoylethyl)-2-{[4-(trifluoromethoxy)phen-yl]methanesulfonyl}a-cetamide], for which the results for the IC50 against Endothelial lipase (EL) and on hepatic lipase (HL) were 5.4 nM and 126 nM, respectively.
Consider `COCCn1cc(-c2ccc3nc(C(C(=O)NCCS(N)(=O)=O)S(C)(=O)=O)sc3c2)cn1` (stereo not drawn) [Example B162, 2-(6-(1-(2-Methoxyethyl)-1H-pyrazol-4-yl)-1,3-benzothiazol-2-yl)-2-(methylsulfonyl)-N-(2-sulfamoylethyl)acetamide], for which the results for the concentration for half-maximal inhibition (IC50) at Endothelial lipase (EL) (setting [1]) and on hepatic lipase (HL) (setting [2]) were < 10 nM and 995 nM, respectively.
Take `NS(=O)(=O)CCNC(=O)C(c1nc2ccc(-c3cncnc3)cc2s1)S(=O)(=O)CCC(F)(F)F` (stereo not drawn) [Example B139, 2-(6-(5-Pyrimidinyl)-1,3-benzothiazol-2-yl)-N-(2-sulfamoylethyl)-2-((3,3,3-trifluoropropyl)sulfonyl)a-cetamide]: the results for the 50% inhibitory concentration (IC50) at Endothelial lipase (EL) and at hepatic lipase (HL) were 16 nM and 2090 nM, respectively.
As to `CS(=O)(=O)C(C(=O)NCCS(N)(=O)=O)c1nc2ccc(-c3ccc(C(=O)NC4CC4)cc3)cc2s1` (stereo not drawn) [Example B216, N-cyclopropyl-4-(2-{methanesulfonyl[(2-sulfa-moylethyl)carbamoyl]meth-yl}-1,3-benzothiazol-6-yl)benzamide], the figures for the IC50 against Endothelial lipase (EL) and against hepatic lipase (HL) were 2.1 nM and 155 nM, respectively.
Regarding `COCC(C)(C)NC(=O)c1ccc(-c2ccc3nc(C(C(=O)NCCS(N)(=O)=O)S(=O)(=O)CC4CC4)sc3c2)cc1` (stereo not drawn) [Example B248, 4-(2-{cyclopropylmethane-sulfonyl[(2-sulfamoyl-ethyl)carbamoyl]methyl}-1,3-benzothiazol-6-yl)-N-(1-methoxy-2-methyl-propan-2-yl)benzamide], the IC50 at Endothelial lipase (EL) was 7.5 nM; against hepatic lipase (HL), 17.6 nM.
Taken in the same sequence, the figures for `CC1(O)CN(C(=O)c2ccc(-c3ccc4nc(C(C(=O)NCCS(N)(=O)=O)S(=O)(=O)Cc5cccc(C(F)(F)F)c5)sc4c3)cc2)C1` (stereo not drawn) [Example B360, 2-{6-[4-(3-hydroxy-3-methylazetidine-1-carbonyl)phenyl]-1,3-benzothiazol-2-yl}-N-(2-sulfamoylethyl)-2-{[3-(trifluoromethyl)phen-yl]methanesulfonyl}a-cetamide] were 6.2 nM and 471 nM.
Taken in the same sequence, the figures for `NS(=O)(=O)CCNC(=O)C(c1nc2ccc(-c3ccnc(O)c3F)cc2s1)S(=O)(=O)CCC(F)(F)F` (stereo not drawn) [Example B375, 2-[6-(3-fluoro-2-hydroxy-pyridin-4-yl)-1,3-benzothiazol-2-yl]-N-(2-sulfamoylethyl)-2-(3,3,3-trifluoropropanesulfonyl)a-cetamide] were 14 nM and 787 nM.
`CN1CCOc2cc(-c3ccc4nc(C(C(=O)NCCS(N)(=O)=O)S(C)(=O)=O)sc4c3)ccc21` (stereo not drawn) [Example B61, 2-(6-(4-methyl-3,4-dihydro-2H-1,4-benzoxazin-7-yl)-1,3-benzothiazol-2-yl)-2-(methylsulfonyl)-N-(2-sulfamoylethyl)acetamide]: the values for the IC50 against Endothelial lipase (EL) and on hepatic lipase (HL) were < 10 nM and 50 nM, respectively.
The matching figures for `Cc1nnc(CNC(=O)C(c2nc3ccc(-c4ccc(C(=O)N5CC(C)(O)C5)cc4)cc3s2)S(C)(=O)=O)o1` (stereo not drawn) [Example B263, 2-{6-[4-(3-hydroxy-3-methylazetidine-1-carbonyl)phenyl]-1,3-benzothiazol-2-yl}-2-methanesulfonyl-N-[(5-methyl-1,3,4-oxadiazol-2-yl)methyl]acetamide]: 77 nM and 10000 nM.
Take `CS(=O)(=O)C(C(=O)NCCS(N)(=O)=O)c1nc2ccc(-c3ccc(Cl)cc3)cc2s1` (stereo not drawn) [Example B207, 2-[6-(4-chlorophenyl)-1,3-benzothiazol-2-yl]-2-methanesulfonyl-N-(2-sulfamoylethyl)acetamide]: the figures for the half-maximal inhibitory concentration (IC50) at Endothelial lipase (EL) and against hepatic lipase (HL) were 1.4 nM and 2.8 nM, respectively.
The matching figures for `NS(=O)(=O)CCNC(=O)C(c1nc2ccc(-c3ccc(C(=O)N4CCC(F)(F)C4)cc3)cc2s1)S(=O)(=O)Cc1ccc(OC(F)(F)F)cc1` (stereo not drawn) [Example B324, 2-{6-[4-(3,3-difluoropyrrolidine-1-carbonyl)phen-yl]-1,3-benzothiazol-2-yl}-N-(2-sulfamoyl-ethyl)-2-{[4-(trifluoro-methoxy)phen-yl]methanesulfonyl}a-cetamide]: 9.1 nM and 58.1 nM.
The matching figures for `NS(=O)(=O)CCNC(=O)C(c1nc2ccc(-c3ccc(C(=O)NCCO)cc3)cc2s1)S(=O)(=O)CC1CC1` (stereo not drawn) [Example B59, 4-(2-(1-((cyclopropylmeth-yl)sulfonyl)-2-oxo-2-((2-sulfamoylethyl)amino)eth-yl)-1,3-benzothiazol-6-yl)-N-(2-hydroxyethyl)ben-zamide]: < 10 nM and 102 nM.
The matching figures for `CC1(O)CCN(C(=O)c2ccc(-c3ccc4nc(C(C(=O)NCCS(N)(=O)=O)S(C)(=O)=O)sc4c3)cc2)CC1` (stereo not drawn) [Example B176, 2-(6-(4-((4-hydroxy-4-methyl-1-piperidinyl)car-bonyl)phenyl)-1,3-benzothiazol-2-yl)-2-(methylsulfonyl)-N-(2-sulfamoylethyl)acetamide]: < 10 nM and 92 nM.
Regarding `CS(=O)(=O)C(C(=O)NCCS(N)(=O)=O)c1nc2ccc(-c3ccc(C(=O)NC4COC4)cc3)cc2s1` (stereo not drawn) [Example B178, 4-(2-(1-(methylsulfonyl)-2-oxo-2-((2-sulfamoylethyl)a-mino)ethyl)-1,3-benzothiazol-6-yl)-N-3-oxetanylbenzamide], the results for the IC50 on Endothelial lipase (EL) and at hepatic lipase (HL) were < 10 nM and 91 nM, respectively.
As for `COCCNC(=O)c1cccc(-c2ccc3nc(C(C(=O)NCCS(N)(=O)=O)S(C)(=O)=O)sc3c2)c1` (stereo not drawn) [Example B49, N-(2-methoxyethyl)-3-(2-(1-(methylsulfonyl)-2-oxo-2-((2-sulfamoylethyl)a-mino)ethyl)-1,3-benzothiazol-6-yl)ben-zamide], the IC50 against Endothelial lipase (EL) was < 10 nM; against hepatic lipase (HL) it was 152 nM.
With `NS(=O)(=O)CCNC(=O)C(c1nc2ccc(-c3ccnc(O)c3)cc2s1)S(=O)(=O)CCC(F)(F)F` (stereo not drawn) [Example B191, 2-(6-(2-oxo-1,2-dihydro-4-pyridinyl)-1,3-benzothiazol-2-yl)-N-(2-sulfamoylethyl)-2-((3,3,3-trifluoropropyl)sulfonyl)a-cetamide], the values for the IC50 at Endothelial lipase (EL) and against hepatic lipase (HL) were < 10 nM and 445 nM, respectively.
In the case of `NS(=O)(=O)CCNC(=O)C(c1nc2ccc(-c3ccc(C(=O)N4CCOCC4)cc3)cc2s1)S(=O)(=O)CCN1CCOCC1` (stereo not drawn) [Example B157, 2-{6-[4-(4-Morpholinylcarbonyl)phenyl]-1,3-benzothiazol-2-yl}-2-{[2-(4-morpholinyl)ethyl]sulfonyl}-N-(2-sulfamoylethyl)acetamide], the IC50 on Endothelial lipase (EL) (setting [1]) is < 10 nM; on hepatic lipase (HL) (setting [2]), 147 nM.
In the case of `NC(=O)c1ccc(-c2ccc3nc(C(C(=O)NCCS(N)(=O)=O)S(=O)(=O)Cc4ccc(OC(F)(F)F)cc4)sc3c2)cc1` (stereo not drawn) [Example B227, 4-(2-{[(2-sulfamoylethyl)car-bamoyl][4-(trifluoromethoxy)phen-yl]methanesulfonyl-methyl}-1,3-benzothiazol-6-yl)benzamide], the IC50 amounted to 0.5 nM against Endothelial lipase (EL) and 80.8 nM against hepatic lipase (HL).
Taken in the same sequence, the figures for `COCCS(=O)(=O)C(C(=O)NCCS(N)(=O)=O)c1nc2ccc(Br)cc2s1` (stereo not drawn) [Example B124, 2-(6-bromo-1,3-benzothiazol-2-yl)-2-((2-methoxyethyl)sulfonyl)-N-(2-sulfamoylethyl)a-cetamide] were 26 nM and 830 nM.
With `COCCS(=O)(=O)C(C(=O)NCc1cc(C)no1)c1nc2ccc(-c3ccccc3)cc2s1` (stereo not drawn) [Example B234, 2-(2-methoxyethane-sulfonyl)-N-[(3-methyl-1,2-oxazol-5-yl)methyl]-2-(6-phenyl-1,3-benzothiazol-2-yl)a-cetamide], the 50% inhibitory concentration (IC50) was 4.9 nM against Endothelial lipase (EL) and 0.5 nM against hepatic lipase (HL).
Taken in the same sequence, the figures for `NS(=O)(=O)CCNC(=O)C(c1nc2ccc(-c3ccc4c(c3)CNC4=O)cc2s1)S(=O)(=O)Cc1ccc(C(F)(F)F)cc1` (stereo not drawn) [Example B358, 2-[6-(1-oxo-2,3-dihydro-1H-isoindol-5-yl)-1,3-benzothiazol-2-yl]-N-(2-sulfamoylethyl)-2-{[4-(trifluoromethyl)phen-yl]methanesulfonyl}a-cetamide] were 3.7 nM and 67.6 nM.
Taken in the same sequence, the figures for `NS(=O)(=O)CCNC(=O)C(c1nc2ccc(-c3cnn(CCN4CCOCC4)c3)cc2s1)S(=O)(=O)Cc1ccc(C(F)(F)F)cc1` (stereo not drawn) [Example B73, 2-(6-(1-(2-(4-morpholinyl)ethyl)-1H-pyrazol-4-yl)-1,3-benzothiazol-2-yl)-N-(2-sulfamoylethyl)-2-((4-(trifluoromethyl)benzyl)sul-fonyl)acetamide] were < 10 nM and 15900 nM.
Taken in the same sequence, the figures for `Cc1nnc(CNC(=O)C(c2nc3cc(F)c(-c4ccccc4)cc3s2)S(=O)(=O)CCC(F)(F)F)o1` (stereo not drawn) [Example B150, 2-(5-Fluoro-6-phenyl-1,3-benzothiazol-2-yl)-N-((5-methyl-1,3,4-oxadiazol-2-yl)methyl)-2-((3,3,3-trifluoropropyl)sulfonyl)a-cetamide] were < 10 nM and 84 nM.
